This data set can be described thus: Evaluation of solubility in organic solvent (visual). The class given is physicochemical. On the set-up: key: A (good): The compound dissolved completely at room temperature.; B (poor): Undissolved compound was observed at room temperature. The settings on record: eight parts by mass in 100 parts by mass mixed solvent (19 mass % THF, 38 mass % TL, 43 mass % 2-PrOH), 25° C., stirred 10 minutes. As to the method:
To 100 parts by mass of a mixed solvent of tetrahydrofuran (appropriately abbreviated to as THF below), toluene (appropriately abbreviated to as TL below) and 2-propanol (appropriately abbreviated to as 2-PrOH below) (19 mass % THF, 38 mass % TL and 43 mass % 2-PrOH, 25° C.), eight parts by mass of the compound 1 or 2 or the comparative compound 1 was added, and without heating or cooling, the mixtures were stirred with a rotor for 10 minutes. Then, the dissolution states were observed visually, and the solubility was evaluated by the following criteria.

As for `CCC(C)(C)C1=C/C(=C2/C=C(C(C)(C)CC)C(=O)c3ccccc32)c2ccccc2C1=O` [Comparative Compound 1, reference compound], the Solubility entry is “B”.

As for `C=CC(=O)OCCOC(=O)CCC(=O)Oc1cccc(C(C)C2=C/C(=C3/C=C(C(C)c4cccc(OC(=O)CCC(=O)OCCOC(=O)C=C)c4)C(=O)c4ccccc43)c3ccccc3C2=O)c1` (stereo not drawn) [Compound 1], the Solubility entry is recorded as “A”.

For `C=C(C)C(=O)OCC(COC(=O)C(=C)C)OC(=O)CCC(=O)Oc1cccc(C(C)C2=C/C(=C3/C=C(C(C)c4cccc(OC(=O)CCC(=O)OC(COC(=O)C(=C)C)COC(=O)C(=C)C)c4)C(=O)c4ccccc43)c3ccccc3C2=O)c1` (stereo not drawn) [Compound 2], the Solubility entry is “A”.

For the origin of these results see patent publication US20240353769A1, “ELECTROPHOTOGRAPHIC PHOTORECEPTOR, COATING LIQUID FOR FORMING ELECTROPHOTOGRAPHIC PHOTORECEPTOR PROTECTIVE LAYER, COMPOUND, ELECTROPHOTOGRAPHIC PHOTORECEPTOR CARTRIDGE, AND IMAGE FORMATION DEVICE” (MITSUBISHI CHEMICAL CORPORATION, priority 2021, published 2024).
